Columns and labels:
[1] = Inhibition of chymotrypsin-like activity of 20S proteasome in human MOLT4 cells after 1 hr by […]; assay type: cell-based; conditions: MOLT-4, 1 h
[2] = Cytotoxicity against multidrug resistance transporter expressing doxorubicin resistant human MESSA cells assessed as cell viability after 72 hrs by CellTiter-Glo luminescent assay; assay type: functional, cell-based; conditions: MES-SA
[3] = Cytotoxicity against human MESSA cells assessed as cell viability after 72 hrs by CellTiter-Glo luminescent assay; assay type: functional, cell-based; conditions: MES-SA
[4] = Inhibition of chymotrypsin-like activity of human 20S proteasome by spectrofluorimetry
[5] = Chemical stability in simulated intestinal fluid assessed as compound remaining at 4 uM after 15 mins; assay type: physicochemical; conditions: read-out: Stability
Mus musculus [6] = assay: Inhibition of chymotrypsin-like activity of 20S proteasome in BALB/c mouse adrenal gland 40 mg/kg, po after 1 hr; assay type: functional; design: scale not given: the % may be the effect or the level left
[7] = Metabolic stability in mouse liver microsomes assessed as extraction ratio at 1 uM; assay type: ADME, Microsome
[8] = Metabolic stability in human liver microsomes assessed as extraction ratio at 1 uM; assay type: ADME, Microsome
Mus musculus [9] = assay: Inhibition of chymotrypsin-like activity of 20S proteasome in BALB/c mouse adrenal gland at 20 mg/kg, po after 1 hr; assay type: functional; design: scale not given: the % may be the effect or the level left
[10] = Inhibition of chymotrypsin-like activity of human 20S proteasome beta 5 subunit by proteasome active site ELISA

| Compound | IC50 [1] [nM] | IC50 [2] [nM] | IC50 [3] [nM] | IC50 [4] [nM] | remaining at 0.25 h, 4 µM [5] [%] | Activity (Mus musculus [6]) [%] | hepatic extraction ratio at 1 µM [7] [dimensionless ratio] | hepatic extraction ratio at 1 µM [8] [dimensionless ratio] | Activity (Mus musculus [9]) [%] | IC50 [10] [nM] |
| --- | --- | --- | --- | --- | --- | --- | --- | --- | --- | --- |
| CC(C)C[C@H](NC(=O)c1cccs1)C(=O)N[C@@H](Cc1ccccc1)C(=O)N[C@@H](CC(C)C)C(=O)[C@@]1(C)CO1 | 40 | 120 | 34 | 10 |  |  |  |  |  |  |
| CC(C)C[C@H](NC(=O)[C@H](Cc1ccccc1)NC(=O)CN1CCOCC1)C(=O)[C@@]1(C)CO1 | > 1000 | > 1000 | > 1000 | > 1000 |  |  |  |  |  |  |
| CC(C)C[C@H](NC(=O)c1nccn1C)C(=O)N[C@@H](Cc1ccccc1)C(=O)N[C@@H](CC(C)C)C(=O)[C@@]1(C)CO1 | 161 | 164 | 67 | 122 |  |  |  |  |  |  |
| CC(C)C[C@H](NC(=O)[C@H](Cc1ccccc1)NC(=O)[C@H](Cc1ccccn1)NC(=O)c1cc(CN2CCOCC2)on1)C(=O)[C@@]1(C)CO1 | 31 | 421 | 11 | 5.2 | 20 | 92 |  |  |  |  |
| CC(C)C[C@H](NC(=O)c1ccon1)C(=O)N[C@@H](Cc1ccccc1)C(=O)N[C@@H](CC(C)C)C(=O)[C@@]1(C)CO1 | 50 | 123 | 73 | 7.4 |  |  |  |  |  |  |
| COC[C@H](NC(=O)c1cc(C)on1)C(=O)N[C@@H](CC1CCCCC1)C(=O)N[C@@H](CC(C)C)C(=O)[C@@]1(C)CO1 | 78 | 353 | 210 | 13 | 75 |  | 0.96 | 0.94 | 56 |  |
| COC[C@H](NC(=O)c1cc(CN2CCOCC2)on1)C(=O)N[C@@H](Cc1ccccc1)C(=O)N[C@@H](CC(C)C)C(=O)[C@@]1(C)CO1 | 26 | 147 | 13 | 5.7 | 80 | 57 |  |  |  |  |
| CC(C)C[C@H](NC(=O)[C@H](Cc1ccccc1)NC(=O)[C@H](Cc1cscn1)NC(=O)c1cc(CN2CCOCC2)on1)C(=O)[C@@]1(C)CO1 | 59 | 841 | 7.9 | 6.9 | 15 | 93 |  |  |  |  |
| Cc1cc(C(=O)N[C@@H](Cc2ccncc2)C(=O)N[C@@H](Cc2ccccc2)C(=O)N[C@@H](CC(C)C)C(=O)[C@@]2(C)CO2)no1 | 8.6 | 271 | 8.6 | 2.8 | 90 | 28 |  |  |  |  |
| CC(C)C[C@H](NC(=O)c1ncc[nH]1)C(=O)N[C@@H](Cc1ccccc1)C(=O)N[C@@H](CC(C)C)C(=O)[C@@]1(C)CO1 | 271 | > 1000 | 136 | 107 |  |  |  |  |  |  |
| CC(C)C[C@H](NC(=O)c1ccno1)C(=O)N[C@@H](Cc1ccccc1)C(=O)N[C@@H](CC(C)C)C(=O)[C@@]1(C)CO1 | 65 | 82 | 58 | 5.8 |  |  |  |  |  |  |
| CC(C)C[C@H](NC(=O)c1cnco1)C(=O)N[C@@H](Cc1ccccc1)C(=O)N[C@@H](CC(C)C)C(=O)[C@@]1(C)CO1 | 84 | 505 | 159 | 27 |  |  |  |  |  |  |
| CC(C)C[C@H](NC(=O)[C@H](Cc1ccccc1)NC(=O)c1cnccn1)B(O)O [BORTEZOMIB] |  |  |  |  |  |  |  |  |  | 8.7 |
| CC(C)C[C@H](NC(=O)c1ccn(C)n1)C(=O)N[C@@H](Cc1ccccc1)C(=O)N[C@@H](CC(C)C)C(=O)[C@@]1(C)CO1 | 290 | 205 | 137 | 76 |  |  |  |  |  |  |
| Cc1cc(C(=O)N[C@@H](Cc2cccnc2)C(=O)N[C@@H](Cc2ccccc2)C(=O)N[C@@H](CC(C)C)C(=O)[C@@]2(C)CO2)no1 | 27 | 543 | 39 | 1.6 | 90 | 70 |  |  |  |  |
| CC(C)C[C@H](NC(=O)c1ccoc1)C(=O)N[C@@H](Cc1ccccc1)C(=O)N[C@@H](CC(C)C)C(=O)[C@@]1(C)CO1 | 116 | 125 | 54 | 34 |  |  |  |  |  |  |
| COCC[C@H](NC(=O)c1cc(CN2CCOCC2)on1)C(=O)N[C@@H](Cc1ccccc1)C(=O)N[C@@H](CC(C)C)C(=O)[C@@]1(C)CO1 | 42 | 1140 | 24 | 19 | 90 | 81 |  |  |  |  |
| CC(C)C[C@H](NC(=O)c1cc[nH]n1)C(=O)N[C@@H](Cc1ccccc1)C(=O)N[C@@H](CC(C)C)C(=O)[C@@]1(C)CO1 | 188 | > 1000 | 109 | 36 |  |  |  |  |  |  |

| Compound | IC50 [1] [nM] | IC50 [2] [nM] | IC50 [3] [nM] | IC50 [4] [nM] | remaining at 0.25 h, 4 µM [5] [%] | Activity (Mus musculus [6]) [%] | hepatic extraction ratio at 1 µM [7] [dimensionless ratio] | hepatic extraction ratio at 1 µM [8] [dimensionless ratio] | Activity (Mus musculus [9]) [%] | IC50 [10] [nM] |
| --- | --- | --- | --- | --- | --- | --- | --- | --- | --- | --- |
| COC[C@H](NC(=O)c1cc(C)on1)C(=O)N[C@H](C(=O)N[C@@H](CC(C)C)C(=O)[C@@]1(C)CO1)C(C)C | 147 | 636 | 57 | 44 | 95 |  | 0.79 | 0.63 | 12 |  |
| COC[C@H](NC(=O)c1cc(C)on1)C(=O)N[C@@H](Cc1cscn1)C(=O)N[C@@H](CC(C)C)C(=O)[C@@]1(C)CO1 | 25 | 367 | 17 | 16 | 100 |  | 0.86 | 0.85 | 39 |  |
| COC[C@H](NC(=O)c1cc(C)on1)C(=O)N[C@@H](Cc1ccsc1)C(=O)N[C@@H](CC(C)C)C(=O)[C@@]1(C)CO1 | 46 | 181 | 25 | 9.2 | 90 |  | 0.95 | 0.87 | 117 |  |
| CC(C)C[C@H](NC(=O)[C@@H]1CCCO1)C(=O)N[C@@H](Cc1ccccc1)C(=O)N[C@@H](CC(C)C)C(=O)[C@@]1(C)CO1 | 180 | 159 | 130 | 42 |  |  |  |  |  |  |
| CC(C)C[C@H](NC(=O)[C@H]1CCCO1)C(=O)N[C@@H](Cc1ccccc1)C(=O)N[C@@H](CC(C)C)C(=O)[C@@]1(C)CO1 | 154 | 110 | 69 | 34 |  |  |  |  |  |  |
| CC(C)C[C@H](NC(=O)[C@H](Cc1ccccc1)NC(=O)[C@H](Cc1ccncc1)NC(=O)c1cc(CN2CCOCC2)on1)C(=O)[C@@]1(C)CO1 | 14 | > 1000 | 8.7 | 5.1 | 60 | 96 |  |  |  |  |
| CC[C@H](NC(=O)[C@H](COC)NC(=O)c1cc(C)on1)C(=O)N[C@@H](CC(C)C)C(=O)[C@@]1(C)CO1 | 248 | 468 | 92 | 54 | 100 |  | 0.47 |  | 90 |  |
| CC(C)C[C@H](NC(=O)c1cnccn1)C(=O)N[C@@H](Cc1ccccc1)C(=O)N[C@@H](CC(C)C)C(=O)[C@@]1(C)CO1 | > 1000 | > 1000 | > 1000 | 752 |  |  |  |  |  |  |
| COCc1cc(C(=O)N[C@@H](CC(C)C)C(=O)N[C@@H](Cc2ccccc2)C(=O)N[C@@H](CC(C)C)C(=O)[C@@]2(C)CO2)no1 | 8.1 | 28 | 23 | 1.2 |  |  |  |  |  |  |
| CC(C)C[C@H](NC(=O)c1cc(C(C)C)on1)C(=O)N[C@@H](Cc1ccccc1)C(=O)N[C@@H](CC(C)C)C(=O)[C@@]1(C)CO1 | 17 | 30 | 63 | 6.3 |  |  |  |  |  |  |
| COC[C@H](NC(=O)c1cc(C)on1)C(=O)N[C@@H](CC#N)C(=O)N[C@@H](CC(C)C)C(=O)[C@@]1(C)CO1 | 91 | 941 | 29 | 40 | 100 |  | 0.28 |  | 40 |  |
| CC(C)C[C@H](NC(=O)c1ccncc1)C(=O)N[C@@H](Cc1ccccc1)C(=O)N[C@@H](CC(C)C)C(=O)[C@@]1(C)CO1 | 55 | > 1000 | 33 | 20 |  |  |  |  |  |  |
| Cc1cc(C(=O)N[C@@H](Cc2ccccn2)C(=O)N[C@@H](Cc2ccccc2)C(=O)N[C@@H](CC(C)C)C(=O)[C@@]2(C)CO2)no1 | 78 | 219 | 45 | 13 | 20 | 23 |  |  |  |  |
| Cc1cc(NC(=O)N[C@@H](CC(C)C)C(=O)N[C@@H](Cc2ccccc2)C(=O)N[C@@H](CC(C)C)C(=O)[C@@]2(C)CO2)no1 | 47 | > 1000 | 182 | 13 |  |  |  |  |  |  |
| COC[C@H](NC(=O)c1cc(C)on1)C(=O)N[C@@H](CC(C)C)C(=O)N[C@@H](CC(C)C)C(=O)[C@@]1(C)CO1 | 41 | 366 | 45 | 20 | 90 |  | 0.45 | 0.83 | 37 |  |
| CC(C)C[C@H](NC(=O)c1ccnnc1)C(=O)N[C@@H](Cc1ccccc1)C(=O)N[C@@H](CC(C)C)C(=O)[C@@]1(C)CO1 | 50 | > 1000 | 18 | 12 |  |  |  |  |  |  |
| COCC[C@H](NC(=O)c1cc(C)on1)C(=O)N[C@@H](Cc1ccccc1)C(=O)N[C@@H](CC(C)C)C(=O)[C@@]1(C)CO1 | 69 | 286 | 164 | 26 | 80 | 47 |  |  |  |  |

Source: ChEMBL document CHEMBL1138457, “Design and synthesis of an orally bioavailable and selective peptide epoxyketone proteasome inhibitor (PR-047)” (J Med Chem, 2009)
